Results: ChEMBL document CHEMBL1157120, “The identification of indacaterol as an ultralong-acting inhaled beta2-adrenoceptor agonist” (J Med Chem, 2010)

Tests used:
[1] = pH 7.4
Description: Chromatographic hydrophobicity index at 2 mg/ml at pH 7.4 by rapid gradient HPLC analysis

[2] = Intrinsic clearance in rat liver microsomes assessed per mg of protein at 1 uM after 10 to 30 mins by LC/MS analysis in presence of UDP-glucuronic acid; format: ADME, Microsome
[3] = Plasma protein binding in human at 1 to 2000 ng/mL after 3 hrs by liquid scintillation counting; format: ADME, cell-free; conditions: read-out: PPB (converted)
[4] = biological target: T1, Beta-2 adrenergic receptor (Homo sapiens, UniProt P07550)
T1 sequence (P07550 whole entry): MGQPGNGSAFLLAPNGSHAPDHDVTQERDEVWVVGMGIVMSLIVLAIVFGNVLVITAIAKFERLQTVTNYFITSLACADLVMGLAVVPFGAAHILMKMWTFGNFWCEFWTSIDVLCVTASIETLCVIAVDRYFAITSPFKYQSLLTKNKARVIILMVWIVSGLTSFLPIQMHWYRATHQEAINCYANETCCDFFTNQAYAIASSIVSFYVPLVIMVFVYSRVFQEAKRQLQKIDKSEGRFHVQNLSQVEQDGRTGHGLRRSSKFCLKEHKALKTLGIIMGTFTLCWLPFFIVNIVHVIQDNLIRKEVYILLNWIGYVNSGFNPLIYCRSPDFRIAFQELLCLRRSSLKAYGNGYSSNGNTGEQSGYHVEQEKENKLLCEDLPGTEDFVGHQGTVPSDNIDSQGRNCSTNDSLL
Description: Agonist activity at human beta2 adrenergic receptor assessed as increase in cAMP level by whole cell assay

[5] = Intrinsic clearance in rat liver microsomes assessed per mg of protein at 1 uM after 10 to 30 mins by LC/MS analysis in presence of NADPH; format: ADME, Microsome
[6] = Fraction unbound in human plasma; format: ADME, cell-free
[7] = organism: Cavia porcellus; test: Inhibition of serotonin-induced bronchoconstriction in guinea pig assessed as intrinsic duration of bronchodilatory activity at ED80
[8] = biological target: T1, Beta-2 adrenergic receptor; test: biochemical
Description: Displacement of [125I]cyanopindolol from human recombinant beta2 adrenergic receptor expressed in CHO cells by filtration assay

[9] = biological target: Albumin (Homo sapiens, UniProt P02768); test: Binding affinity to human serum albumin by UV/HPLC analysis; format: ADME; conditions: isolated protein
Albumin, sequence (P02768 whole entry): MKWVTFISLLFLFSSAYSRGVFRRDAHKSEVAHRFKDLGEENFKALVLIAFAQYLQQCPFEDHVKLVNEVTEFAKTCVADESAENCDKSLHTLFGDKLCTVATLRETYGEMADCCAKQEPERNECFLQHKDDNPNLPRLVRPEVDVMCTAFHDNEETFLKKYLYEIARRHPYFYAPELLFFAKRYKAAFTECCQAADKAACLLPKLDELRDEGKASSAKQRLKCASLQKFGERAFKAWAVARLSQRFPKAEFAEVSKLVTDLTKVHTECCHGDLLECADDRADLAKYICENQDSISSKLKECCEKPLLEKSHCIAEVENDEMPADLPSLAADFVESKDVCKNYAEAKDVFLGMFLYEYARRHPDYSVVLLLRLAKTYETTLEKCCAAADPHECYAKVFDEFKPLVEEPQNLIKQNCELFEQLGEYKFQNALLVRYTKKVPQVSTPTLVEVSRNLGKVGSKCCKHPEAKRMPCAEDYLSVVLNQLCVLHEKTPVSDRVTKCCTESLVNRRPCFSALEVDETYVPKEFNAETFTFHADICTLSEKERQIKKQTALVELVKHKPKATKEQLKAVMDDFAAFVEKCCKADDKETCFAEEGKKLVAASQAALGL

[10] = biological target: Beta-2 adrenergic receptor (Cavia porcellus, UniProt Q8K4Z4)
Beta-2 adrenergic receptor (Cavia porcellus, UniProt Q8K4Z4), sequence (Q8K4Z4 whole entry): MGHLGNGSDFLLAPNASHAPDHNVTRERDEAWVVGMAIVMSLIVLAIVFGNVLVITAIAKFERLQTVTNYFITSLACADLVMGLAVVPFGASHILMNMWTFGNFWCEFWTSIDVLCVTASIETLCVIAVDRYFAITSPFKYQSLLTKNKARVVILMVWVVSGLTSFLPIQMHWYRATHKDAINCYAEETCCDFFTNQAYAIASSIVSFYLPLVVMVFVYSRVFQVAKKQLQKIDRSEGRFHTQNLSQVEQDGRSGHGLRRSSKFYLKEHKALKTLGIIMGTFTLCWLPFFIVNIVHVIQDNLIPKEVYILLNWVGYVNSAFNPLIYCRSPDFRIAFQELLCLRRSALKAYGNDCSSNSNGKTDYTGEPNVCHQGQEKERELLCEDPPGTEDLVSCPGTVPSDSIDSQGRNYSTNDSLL
Description: Agonist activity at beta2 adrenergic receptor in guinea pig tracheal strip assessed as inhibition of electrically-induced bronchocontractile response after 30 mins

SMILES	CHI [1]	microsomal CLint at 1 µM [2]	fraction unbound at 3 h [3]	EC50 [4]	microsomal CLint at 1 µM [5]	fraction unbound [6]	Time [7]	Ki [8]	Activity [9]	IC50 [10]
CCc1cc2c(cc1CC)CC(NC[C@H](O)c1ccc(O)c3[nH]c(=O)ccc13)C2 [INDACATEROL]	59.7	378 µL/min/mg	0.049	11 nM	76 µL/min/mg	0.043	24 h	76 nM	95.7%	
CCCc1cc2c(cc1CCC)CC(NC[C@H](O)c1ccc(O)c3[nH]c(=O)ccc13)C2	> 70			14 nM				119 nM	98.6%	20 nM
O=c1ccc2c([C@@H](O)CNC3Cc4ccccc4C3)ccc(O)c2[nH]1	38.2			5 nM				218 nM	63.8%	0.83 nM
CC(C)(C)NCC(O)c1ccc(O)c(CO)c1 (centres undefined) [ALBUTEROL]	21								29.9%	
CCc1ccc(CC)c2c1CC(NC[C@H](O)c1ccc(O)c3[nH]c(=O)ccc13)C2	62.9			115 nM				692 nM	94%	75 nM
COc1ccc(C[C@@H](C)NC[C@H](O)c2ccc(O)c3[nH]c(=O)ccc23)cc1 [CARMOTEROL]	37.7			0.76 nM				3.19 nM	57.1%	0.3 nM
OCc1cc(C(O)CNCCCCCCOCCCCc2ccccc2)ccc1O (centres undefined) [SALMETEROL]	56.7								91.1%	
CCCCc1cc2c(cc1CCCC)CC(NC[C@H](O)c1ccc(O)c3[nH]c(=O)ccc13)C2	> 70			25 nM				112 nM	99.5%	> 1000 nM
Cc1cc2c(cc1C)CC(NC[C@H](O)c1ccc(O)c3[nH]c(=O)ccc13)C2	54.9			39 nM				522 nM	89.8%	48 nM
CCc1cc2c(cc1CC)CC(NC[C@H](O)c1ccc(O[C@@H]3O[C@H](C(=O)O)[C@@H](O)[C@H](O)[C@H]3O)c3[nH]c(=O)ccc13)C2								> 10000 nM		
COc1cc2c(cc1OC)CC(NC[C@H](O)c1ccc(O)c3[nH]c(=O)ccc13)C2	32.4			18 nM				342 nM	59.5%	2.3 nM
